In US11285133B2, “2- or 3-imidazolines as carbapenemases inhibitors” (priority 2017, dated 2022):
Marks after values point to notes of the source that are not given here.

Columns and labels:
Format in all cases: biochemical
OXA-48 Enzyme = OXA-48 Enzyme (Klebsiella pneumoniae, UniProt Q6XEC0); experiment: Imipenem hydrolysis monitored by UV absorbance slope, OXA-48 enzyme; details: for OXA-48 Enzyme Inhibition at 10 μM: 10 μM compound; for inhibition at 10 µM: read-out: OXA-48 Enzyme Inhibition at 10 μM
Sequence of OXA-48 Enzyme (Q6XEC0 23-265 limits assumed): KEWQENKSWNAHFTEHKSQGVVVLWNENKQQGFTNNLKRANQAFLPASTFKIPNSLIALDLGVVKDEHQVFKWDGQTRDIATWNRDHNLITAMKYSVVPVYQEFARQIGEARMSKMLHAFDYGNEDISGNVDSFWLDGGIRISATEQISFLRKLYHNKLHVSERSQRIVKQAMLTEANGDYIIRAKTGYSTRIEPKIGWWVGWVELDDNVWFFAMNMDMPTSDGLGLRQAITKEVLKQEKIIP
Method: (§1) These tests are conducted by comparing UV absorbance slope measurements of impenem alone, and then imipenem with the concerned 3-imidazolines at given concentrations in the presence of the enzyme. It was thus possible to monitor the hydrolysis of imipenem. Lower the value of the slope, the higher is the percentage of inhibition of the enzyme.

KPC Enzyme = KPC Enzyme (Klebsiella pneumoniae, UniProt Q9F663); experiment: Imipenem hydrolysis monitored by UV absorbance slope, KPC enzyme; details: for inhibition at 10 µM: read-out: KPC Enzyme percentage of inhibition at 10 μM; for KPC Enzyme percentage of inhibition at 10 μM: 10 μM compound, starred cells in the IC50 column, ND = Not Detectable (at 10 μM)
Sequence of KPC Enzyme (Q9F663 25-293, looked up): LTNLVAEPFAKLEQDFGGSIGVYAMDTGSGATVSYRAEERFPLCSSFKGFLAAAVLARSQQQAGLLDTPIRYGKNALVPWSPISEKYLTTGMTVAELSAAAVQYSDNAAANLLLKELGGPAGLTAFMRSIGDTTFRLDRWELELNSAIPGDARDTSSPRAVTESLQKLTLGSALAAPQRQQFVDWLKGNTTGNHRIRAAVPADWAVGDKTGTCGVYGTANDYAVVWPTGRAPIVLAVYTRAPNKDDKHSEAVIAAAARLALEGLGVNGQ
Method: as §1

NDM-1 Enzyme = NDM-1 Enzyme (Klebsiella pneumoniae, UniProt C7C422); experiment: Imipenem hydrolysis monitored by UV absorbance slope, NDM-1 enzyme; details: 10 μM compound, starred cells in the IC50 column
Sequence of NDM-1 Enzyme (C7C422 29-270, looked up, species assumed): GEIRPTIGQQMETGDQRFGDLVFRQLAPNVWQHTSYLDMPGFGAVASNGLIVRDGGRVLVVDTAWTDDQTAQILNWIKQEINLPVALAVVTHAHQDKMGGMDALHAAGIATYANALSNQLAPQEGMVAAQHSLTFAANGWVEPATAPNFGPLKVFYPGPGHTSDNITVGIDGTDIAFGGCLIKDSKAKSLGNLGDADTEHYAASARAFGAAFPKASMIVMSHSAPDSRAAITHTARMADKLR
Method: as §1

| Structure (SMILES) | OXA-48 Enzyme Inhibition at 10 μM (OXA-48 Enzyme) | inhibition at 10 µM (OXA-48 Enzyme) | other results |
| --- | --- | --- | --- |
| CC1C(c2ccccc2)=NC(c2ccccc2)N1c1ccc(I)cc1 (centres unmarked) [Compound 14] | Not Detectable |  |  |
| COc1ccc(C2N=C(c3ccccc3)C(C)N2c2ccc(Cl)cc2)cc1 (centres unmarked) [Compound 4] | Not Detectable |  |  |
| COc1ccc(N2C(C)C(c3ccc(Cl)cc3)=NC2c2ccc(Cl)cc2)cc1 (centres unmarked) [Compound 12] | Not Detectable |  | inhibition at 10 µM (KPC Enzyme): 50% |
| CC1C(c2ccc(Cl)cc2)=NC(c2ccc(Cl)cc2)N1c1ccccc1 (centres unmarked) [Compound 18] | Not Detectable |  | KPC Enzyme percentage of inhibition at 10 μM (KPC Enzyme): 14%* |
| COc1ccc(C2=NC(c3ccc(OC)cc3)N(c3ccc(OC)cc3)C2C)cc1 (centres unmarked) [Compound 7] | Not Detectable |  | KPC Enzyme percentage of inhibition at 10 μM (KPC Enzyme): 18%* |
| CC1C(c2ccc(Cl)cc2)=NC(c2ccc(Cl)cc2)N1c1ccc(Cl)cc1 (centres unmarked) [Compound 19] | 50% |  |  |
| CC1C(c2ccccc2)=NC(c2ccccc2)N1c1ccccc1 (centres unmarked) [Compound 13] | Not Detectable |  | KPC Enzyme percentage of inhibition at 10 μM (KPC Enzyme): 23%* |
| C/C(=N\c1ccc(Br)cc1)C1(c2ccc(Cl)cc2)N=C(c2ccc(Cl)cc2)N(c2ccc(Br)cc2)C1C (centres unmarked) [Compound 29] |  | 36% |  |
| COc1ccc(C2N=C(c3ccccc3)C(C)N2c2ccc(I)cc2)cc1 (centres unmarked) [Compound 2] |  | 9% |  |
| COc1ccc(C2N=C(c3ccccc3)C(C)N2c2ccccc2)cc1 (centres unmarked) [Compound 1] |  | 9% |  |
| C/C(=N\c1ccc(Br)cc1)C1(c2ccccc2)N=C(c2ccccc2)N(c2ccc(Br)cc2)C1C (centres unmarked) [Compound 27] |  | 38% |  |
| COc1ccc(C2N=C(c3ccccc3)C(C)N2c2ccc(C(F)(F)F)cc2)cc1 (centres unmarked) [Compound 5] |  | 19% |  |
| C/C(=N\c1ccccc1)C1(c2ccccc2)N=C(c2ccccc2)N(c2ccccc2)C1C (centres unmarked) [Compound 25] | Not Detectable |  | inhibition at 10 µM (KPC Enzyme): 30% |
| CC1C(c2ccccc2)=NC(c2ccccc2)N1c1ccc(Cl)cc1 (centres unmarked) [Compound 16] | Not Detectable |  | KPC Enzyme percentage of inhibition at 10 μM (KPC Enzyme): 18%* |
| C/C(=N\c1ccc(Cl)cc1)C1(c2ccc(Cl)cc2)N=C(c2ccc(Cl)cc2)N(c2ccc(Cl)cc2)C1C (centres unmarked) [Compound 28] |  | 31% |  |
| COc1ccc(C2N=C(c3ccccc3)C(C)N2c2ccc(Br)cc2)cc1 (centres unmarked) [Compound 6] | Not Detectable |  | inhibition at 10 µM (NDM-1 Enzyme; read-out: NDM-1 Enzyme percentage of inhibition at 10 μM): 20% |
| C/C(=N\c1ccc(Cl)cc1)C1(c2ccccc2)N=C(c2ccccc2)N(c2ccc(Cl)cc2)C1C (centres unmarked) [Compound 26] |  | 22% |  |
| CC1C(c2ccccc2)=NC(c2ccccc2)N1c1ccc(Br)cc1 (centres unmarked) [Compound 15] | Not Detectable |  |  |
| COc1ccc(C2N=C(c3ccccc3)C(C)N2c2ccc(OC)cc2)cc1 (centres unmarked) [Compound 3] |  | 11% |  |
| COc1ccc(C2=NC(c3ccccc3)N(c3ccccc3)C2C)cc1 (centres unmarked) [Compound 8] | Not Detectable |  | KPC Enzyme percentage of inhibition at 10 μM (KPC Enzyme): 23%* |
| COc1ccc(C2=NC(c3ccc(OC)cc3)N(c3ccccc3)C2C)cc1 (centres unmarked) [Compound 9] | Not Detectable |  | inhibition at 10 µM (KPC Enzyme): 40% |
| COc1ccc(N2C(C)C(c3ccccc3)=NC2c2ccccc2)cc1 (centres unmarked) [Compound 17] | Not Detectable |  | KPC Enzyme percentage of inhibition at 10 μM (KPC Enzyme): 17%* |
| C/C(=N\c1ccccc1)C1(c2ccc(Cl)cc2)N=C(c2ccc(Cl)cc2)N(c2ccccc2)C1C (centres unmarked) [Compound 24] |  | 38% |  |
| COc1ccc(C2=NC(c3ccccc3)N(c3ccc(OC)cc3)C2C)cc1 (centres unmarked) [Compound 11] | Not Detectable |  | NDM-1 Enzyme percentage of inhibition at 10 μM (NDM-1 Enzyme): 20%* |
